The source made the active and inactive calls.
Assays:
[1] = Trypanosoma cruzi growth suppression in host cells – NIH3T3 host cells, beta-gal luminescence, confirmation (AID 2044); type: functional, cell-based;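 also: intracellular parasites grown in NIH/3T3 mouse fibroblasts as host cells; luminescent beta-galactosidase reporter signal from transgenic T. cruzi replicating inside host cells; inhibitors lower the luminescence signal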
[2] = target: Induced myeloid leukemia cell differentiation protein Mcl-1 (Homo sapiens, UniProt Q07820); type: functional
[3] = NIH3T3 cell viability loss – ATP luminescence, mouse fibroblasts, counter-screen, dose response (AID 2010); type: functional, cell-based;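 also: cells exposed to compound for about 90 hours before reading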
Genome polyprotein = Genome polyprotein (dengue virus type 2, UniProt P29990); test: flavivirus cap methylation enzyme inhibition – biochemical, confirmation dose response, primary screen (AID 588689); type: functional
[4] = target: Eukaryotic translation initiation factor 4E (Mus musculus, UniProt P63073); test: blockers of eIF4G binding by eIF4E – biochemical, TR-FRET, dose response (AID 855); type: functional;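 also: potency for disrupting eIF4E binding to eIF4GI seen as loss of FRET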
Ephrin type-A receptor 4 = Ephrin type-A receptor 4 (Mus musculus, UniProt Q03137); test: EphA4 ligand-binding antagonists – biochemical, colorimetric, mouse EphA4, primary screen (AID 689); type: functional
Protein skinhead-1 = target: T1, Protein skinhead-1 (Caenorhabditis elegans, UniProt P34707); type: functional
T1 sequence (P34707 whole entry): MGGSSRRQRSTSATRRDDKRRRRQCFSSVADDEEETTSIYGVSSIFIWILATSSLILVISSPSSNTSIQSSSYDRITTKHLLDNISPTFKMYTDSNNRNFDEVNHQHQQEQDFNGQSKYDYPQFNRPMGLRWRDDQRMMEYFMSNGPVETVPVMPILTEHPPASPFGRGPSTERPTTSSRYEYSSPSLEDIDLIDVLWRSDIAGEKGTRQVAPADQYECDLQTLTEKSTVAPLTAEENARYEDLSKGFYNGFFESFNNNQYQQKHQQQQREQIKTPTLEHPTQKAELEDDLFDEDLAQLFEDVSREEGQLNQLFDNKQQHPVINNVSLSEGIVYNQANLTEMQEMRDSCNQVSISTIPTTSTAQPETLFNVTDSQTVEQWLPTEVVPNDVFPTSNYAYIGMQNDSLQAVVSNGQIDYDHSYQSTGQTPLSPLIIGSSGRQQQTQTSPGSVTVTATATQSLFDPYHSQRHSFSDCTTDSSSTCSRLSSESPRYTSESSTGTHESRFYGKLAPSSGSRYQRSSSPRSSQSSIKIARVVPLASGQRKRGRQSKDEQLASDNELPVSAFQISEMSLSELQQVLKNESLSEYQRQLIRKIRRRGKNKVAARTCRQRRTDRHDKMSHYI

Cytochrome P450 2D6 = Cytochrome P450 2D6 (Homo sapiens, UniProt P10635);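 also: CYP2D6 member of a cytochrome P450 panel assay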
[5] = target: T2, E3 ubiquitin-protein ligase XIAP (Homo sapiens, UniProt P98170); test: small molecules displacing peptide from XIAP – biochemical, IAP family, fluorescence polarization (AID 1018); type: functional
[6] = target: T2, E3 ubiquitin-protein ligase XIAP; test: Counter Screen using XIAP-Bir3 for Chemical Antagonists of Bir1/2 domains of IAP-family anti-apoptotic proteins. [Related pubchem assays (depositor defined):AID1018, AID1449, AID1514, AID1638, AID1749, AID1750, AID488957, AID488963]
[7] = HPDE-C7 pancreatic duct cell viability loss – fluorescence, HTS (AID 430); type: functional, cell-based; conditions: Homo sapiens
[8] = viability loss of HPDE-C7K cells – cell-based, fluorescence, HTS, primary screen (AID 431); type: functional; conditions: Homo sapiens
H4 = test: Luminescence Cell-Based Dose Response HTS to Identify Activators of 5'UTR Stem-Loop Driven Prion Protein mRNA Translation in H4 Neuroglioblastoma Cells. [Related pubchem assays: 1829 (Project Summary), 1814 (Primary HTS)]; type: functional; conditions: Homo sapiens
[9] = HEK-293T viability loss after treatment – luminescence, T-cell screen hits, cytotoxicity control for TCR NF-kB inhibitor project, dose response (AID 489026); type: functional, cell-based;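 also: cells exposed to compound about 14 hours before the viability readout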
[10] = Luminescence Cell-Based Dose Response HTS to Identify Activators of Luciferase Translation or Activity in H4 […] Cells. [Related pubchem assays: 1829 (Project Summary), 1814 (Primary HTS)]; type: functional
INS1 = test: INS-1E survival protection against cytokine death – cell-based, luminescence, retest, dose response (AID 449756); type: functional; conditions: Rattus norvegicus;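 also: cell death triggered by IL-1 beta plus TNF-alpha plus IFN-gamma mixture; protective hits raise ATP signal compared with cytokine alone wells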
[11] = Luminescence Cell-Based Dose Confirmation HTS to Identify Activators of 5'UTR Stem-Loop Driven Alpha-Synuclein mRNA Translation in H4 Neuroglioblastoma Cells. [Related pubchem assays: 1829 (Project Summary), 1814 (Primary HTS)]; type: functional
Prothrombin = Prothrombin (Homo sapiens, UniProt P00734); test: Thrombin 1536 HTS Dose Response Confirmation. [Related pubchem assays: 1046 (Thrombin 1536 HTS; hits were confirmed in this assay)]; type: functional
[12] = THP-1 cell cytotoxicity, dose response, cytotoxicity control for non-replicating M. tuberculosis project (AID 489025); type: functional
cells = type: functional

T2 sequence (P98170 whole entry): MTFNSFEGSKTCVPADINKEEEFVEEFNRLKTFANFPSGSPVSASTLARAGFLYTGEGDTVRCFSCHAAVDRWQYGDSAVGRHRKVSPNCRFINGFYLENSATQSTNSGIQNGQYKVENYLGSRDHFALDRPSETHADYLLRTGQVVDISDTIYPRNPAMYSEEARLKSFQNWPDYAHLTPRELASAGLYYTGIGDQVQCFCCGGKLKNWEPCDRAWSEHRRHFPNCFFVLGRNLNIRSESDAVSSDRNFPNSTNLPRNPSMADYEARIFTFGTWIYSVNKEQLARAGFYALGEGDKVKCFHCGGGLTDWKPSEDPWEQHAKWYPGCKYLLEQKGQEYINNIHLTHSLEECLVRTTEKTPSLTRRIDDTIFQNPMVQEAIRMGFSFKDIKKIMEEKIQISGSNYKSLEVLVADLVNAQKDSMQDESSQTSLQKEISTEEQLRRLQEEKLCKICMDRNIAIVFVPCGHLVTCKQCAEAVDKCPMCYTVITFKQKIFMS
Sequence of Eukaryotic translation initiation factor 4E (P63073 whole entry): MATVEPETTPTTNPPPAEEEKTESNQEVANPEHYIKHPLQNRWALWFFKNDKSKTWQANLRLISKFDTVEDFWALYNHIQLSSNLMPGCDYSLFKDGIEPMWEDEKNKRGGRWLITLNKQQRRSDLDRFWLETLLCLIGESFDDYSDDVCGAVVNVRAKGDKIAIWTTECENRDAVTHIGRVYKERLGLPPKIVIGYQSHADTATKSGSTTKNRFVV
Sequence of Ephrin type-A receptor 4 (Q03137 whole entry): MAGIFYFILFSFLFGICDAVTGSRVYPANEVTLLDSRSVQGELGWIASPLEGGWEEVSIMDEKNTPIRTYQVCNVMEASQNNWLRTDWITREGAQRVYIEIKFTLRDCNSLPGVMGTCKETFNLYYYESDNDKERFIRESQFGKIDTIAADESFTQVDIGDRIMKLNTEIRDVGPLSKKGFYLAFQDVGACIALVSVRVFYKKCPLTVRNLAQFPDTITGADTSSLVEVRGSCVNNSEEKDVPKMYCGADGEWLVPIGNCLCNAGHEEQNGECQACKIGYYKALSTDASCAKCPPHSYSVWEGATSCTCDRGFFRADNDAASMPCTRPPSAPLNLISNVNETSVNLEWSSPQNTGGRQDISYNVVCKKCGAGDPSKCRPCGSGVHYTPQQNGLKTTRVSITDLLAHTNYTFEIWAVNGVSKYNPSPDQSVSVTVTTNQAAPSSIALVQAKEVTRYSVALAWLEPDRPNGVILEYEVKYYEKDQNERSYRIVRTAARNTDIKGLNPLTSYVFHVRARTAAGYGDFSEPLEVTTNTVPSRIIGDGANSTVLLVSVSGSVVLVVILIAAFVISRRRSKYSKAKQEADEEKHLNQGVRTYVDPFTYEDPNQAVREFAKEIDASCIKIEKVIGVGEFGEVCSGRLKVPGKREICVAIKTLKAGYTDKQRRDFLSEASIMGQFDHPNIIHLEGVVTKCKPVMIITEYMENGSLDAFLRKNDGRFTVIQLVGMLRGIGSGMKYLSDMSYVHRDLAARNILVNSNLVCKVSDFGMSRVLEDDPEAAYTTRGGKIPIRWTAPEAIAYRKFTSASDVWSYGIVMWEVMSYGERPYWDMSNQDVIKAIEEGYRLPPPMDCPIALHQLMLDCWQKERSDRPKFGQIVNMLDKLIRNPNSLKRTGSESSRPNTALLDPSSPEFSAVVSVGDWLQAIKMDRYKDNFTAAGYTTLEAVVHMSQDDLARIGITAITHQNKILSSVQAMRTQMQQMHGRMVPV
Sequence of Induced myeloid leukemia cell differentiation protein Mcl-1 (Q07820 whole entry): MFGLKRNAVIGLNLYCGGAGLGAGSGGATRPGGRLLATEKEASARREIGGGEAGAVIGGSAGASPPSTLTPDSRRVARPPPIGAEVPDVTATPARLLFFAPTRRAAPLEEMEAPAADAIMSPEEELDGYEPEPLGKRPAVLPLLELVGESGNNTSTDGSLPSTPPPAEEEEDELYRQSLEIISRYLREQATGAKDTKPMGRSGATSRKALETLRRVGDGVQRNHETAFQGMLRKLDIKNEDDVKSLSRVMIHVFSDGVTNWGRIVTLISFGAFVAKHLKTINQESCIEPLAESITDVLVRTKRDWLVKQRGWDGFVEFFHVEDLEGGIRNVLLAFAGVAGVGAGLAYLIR
Sequence of Cytochrome P450 2D6 (P10635 whole entry): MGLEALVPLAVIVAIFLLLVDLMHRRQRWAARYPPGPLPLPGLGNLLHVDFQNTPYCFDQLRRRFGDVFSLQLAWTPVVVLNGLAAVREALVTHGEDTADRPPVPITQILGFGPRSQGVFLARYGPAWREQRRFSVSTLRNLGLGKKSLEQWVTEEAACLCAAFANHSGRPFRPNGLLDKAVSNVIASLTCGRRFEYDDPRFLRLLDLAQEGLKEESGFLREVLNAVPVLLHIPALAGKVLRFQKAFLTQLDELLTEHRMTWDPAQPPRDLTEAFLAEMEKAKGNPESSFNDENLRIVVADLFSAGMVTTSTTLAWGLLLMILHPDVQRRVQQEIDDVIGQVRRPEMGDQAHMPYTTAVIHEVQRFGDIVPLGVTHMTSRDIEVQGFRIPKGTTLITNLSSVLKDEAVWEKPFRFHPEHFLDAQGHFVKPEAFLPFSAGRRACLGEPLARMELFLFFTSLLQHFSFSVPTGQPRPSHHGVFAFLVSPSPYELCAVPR
Sequence of Genome polyprotein (P29990 2492-3391 limits assumed): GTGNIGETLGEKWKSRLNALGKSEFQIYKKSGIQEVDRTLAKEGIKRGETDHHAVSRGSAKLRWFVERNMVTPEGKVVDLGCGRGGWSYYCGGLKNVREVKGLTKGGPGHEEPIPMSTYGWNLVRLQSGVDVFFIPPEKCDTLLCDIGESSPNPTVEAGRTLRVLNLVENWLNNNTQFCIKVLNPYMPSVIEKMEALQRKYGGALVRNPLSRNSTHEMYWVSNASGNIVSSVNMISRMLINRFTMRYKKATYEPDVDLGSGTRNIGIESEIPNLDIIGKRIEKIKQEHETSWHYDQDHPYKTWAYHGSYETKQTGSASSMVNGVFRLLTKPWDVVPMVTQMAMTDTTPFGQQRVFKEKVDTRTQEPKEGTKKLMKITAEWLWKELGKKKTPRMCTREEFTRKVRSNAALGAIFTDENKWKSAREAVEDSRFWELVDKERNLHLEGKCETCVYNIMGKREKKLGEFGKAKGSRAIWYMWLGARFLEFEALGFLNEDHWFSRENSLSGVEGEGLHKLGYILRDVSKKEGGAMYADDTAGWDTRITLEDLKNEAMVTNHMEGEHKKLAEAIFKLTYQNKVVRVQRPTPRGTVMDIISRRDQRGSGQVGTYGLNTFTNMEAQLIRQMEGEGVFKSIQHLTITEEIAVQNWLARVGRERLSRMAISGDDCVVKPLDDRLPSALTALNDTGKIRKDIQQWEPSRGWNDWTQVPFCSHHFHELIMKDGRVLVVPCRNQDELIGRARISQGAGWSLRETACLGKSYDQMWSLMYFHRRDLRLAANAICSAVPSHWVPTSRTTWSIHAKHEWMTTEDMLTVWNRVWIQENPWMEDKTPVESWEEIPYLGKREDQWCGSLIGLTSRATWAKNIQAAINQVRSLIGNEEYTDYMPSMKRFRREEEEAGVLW

Cc1ccc(O)c(NC2=C(Cl)C(=O)N(Cc3ccccc3)C2=O)c1
EC50 [1]: 4.37 µM (active)
IC50 [2]: 3.01 µM (not active)
EC50 [3]: > 60 µM (inconclusive)
IC50 (Genome polyprotein): > 100 µM (active)
IC50 [4]: 50 µM (inactive)

CCOc1ccc(/C=C/C2=Cc3c(sc(NC(=O)CSc4nnc(N)[nH]4)c3C#N)C(C)(C)C2)cc1
IC50 (Ephrin type-A receptor 4): 1.79 µM (active)
IC50 (Protein skinhead-1): 60.8 µM (inactive)
AC50 (Cytochrome P450 2D6): 1.78 µM (inconclusive)

O=C(NCc1nnc(S)n1-c1ccc(F)cc1)c1ccco1
IC50 [5]: > 100 µM (not active)
IC50 [6]: > 100 µM (inactive)

Cc1nnc(=O)[nH]c1NCc1ccco1
IC50 [4]: > 64 µM (inactive)

COc1ccc(NC(=O)c2cc(-c3cc(C)ccc3O)[nH]n2)cc1Cl
EC50 [7]: > 20 µM (not active)
EC50 [8]: > 20 µM (not active)

O=C1/C(=C/c2ccc(N3CCOCC3)o2)S/C(=N\c2ccccc2)N1CCc1c[nH]c2ccccc12
EC50 (H4): > 120 µM (not active)
IC50 [9]: > 80 µM (inactive)
EC50 [10]: > 120 µM (not active)
AC50 (INS1): 17.2 µM (active)
EC50 [11]: 13 µM (active)

CCOc1ccc(NC(=O)c2ccc(CNc3c(N4CCCC4)c(=O)c3=O)cc2)cc1
IC50 (Prothrombin): > 50 µM (not active)

CC(C)(C)c1ccccc1OCCOCCN1CCCCCC1
EC50 [1]: 0.651 µM (active)
CC50 [12]: 27.6 µM (active)
EC50 [3]: > 60 µM (inconclusive)
IC50 (cells): > 50 µM (active)

O=C(c1cccc([N+](=O)[O-])c1)n1nc(-c2ccccc2)nc1NCc1ccccc1
IC50 (Prothrombin): 0.521 µM (active)

Reference: ChEMBL document CHEMBL1201862, “PubChem BioAssay data set” (2004)
